Data from patent publication US5393774A, “Phenylethanolamines, pharmaceutical compositions containing these compounds and process for preparing them” (priority 1990, dated 1995).
Read-outs that look alike come from different tables or passages of the source.

Tested on: bronchospasm triggered by intravenous administration of 20 μg/kg of acetyl-choline
Assay: broncholytic effect, test arrangement according to KONZETT and ROSSLER on anesthetized guinea-pigs
Type: in vivo
Settings: Cavia porcellus, read-out: ED50 (broncholytic effect, reduction in acetyl-choline bronchospasm)
[1] = after i.v. administration, anesthetized guinea-pigs, 20 μg/kg acetyl-choline i.v., linear regression analysis

Experimental: The broncholytic effect was investigated by the test arrangement according to KONZETT and ROSSLER (Arch. exp. Path. Pharmak. 195, 71 (1940)) on anesthetized guinea-pigs. An ED50 was calculated from the average percentage reduction, achieved with the various intravenous doses, in the bronchospasm triggered by intravenous administration of 20 μg/kg of acetyl-choline, by linear regression analysis according to LINDER (Statistische Methoden, 4th Edition, pp. 148-162, Birkhauser, Basel 1964):

Structure (SMILES) | ED50 [1] | ED50
CCOC(=O)Nc1c(F)cc(C(O)CNCCCCCCOCCCCc2ccccc2)cc1C#N.Cl (stereo not shown) [Substance A, 1-(4-ethoxycarbonylamino-3-cyano-5-fluoro-phenyl)-2-[6-(4-phenyl-butoxy)hexylamino]-ethanol-hydrochloride] | 10.2 µg/kg | 
Cl.N#Cc1cc(C(O)CNCCCCCCOCCCCc2ccccc2)cc(F)c1N (stereo not shown) [Substance B, 1-(4-amino-3-cyano-5-fluoro-phenyl)-2-[6-(4-phenylbutoxy)-hexyl-amino]ethanol-hydrochloride] | 2.5 µg/kg | 
COc1ccc(CC(C)NCC(O)c2cc(F)c(N)c(C#N)c2)cc1.Cl (stereo not shown) [Substance C, 1-(4-amino-3-cyano-5-fluoro-phenyl)-2-[2-(4-methoxyphenyl)-1-methyl-ethylamino]-ethanol-hydrochloride] |  | 0.16 µg/kg
Nc1c(Cl)cc(C(O)CNCCCCCCOCCCCc2ccccc2)cc1Cl (stereo not shown) [V] | > 400 µg/kg | 
